# Measurements taken from ChEMBL document CHEMBL1154779, “Synthesis and adrenolytic activity of 1-(1H-indol-4-yloxy)-3-(2-(2-methoxy phenoxy)ethylamino)propan-2-ol analogs and its enantiomers. Part 2” (Eur J Med Chem, 2009).
# Activity calls are given as the source filed them. No cut-off for these calls is given here.
# What was measured:
# [1] = target: T1, Adrenergic receptor alpha-1 (Rattus norvegicus, UniProt P15823+P23944+P43140); experiment: Displacement of [3H]Prazosin from alpha1 adrenergic receptor in Wistar rat cerebral cortex membrane by liquid scintillation counting; format: tissue-based
# T1 sequence (P15823 whole entry): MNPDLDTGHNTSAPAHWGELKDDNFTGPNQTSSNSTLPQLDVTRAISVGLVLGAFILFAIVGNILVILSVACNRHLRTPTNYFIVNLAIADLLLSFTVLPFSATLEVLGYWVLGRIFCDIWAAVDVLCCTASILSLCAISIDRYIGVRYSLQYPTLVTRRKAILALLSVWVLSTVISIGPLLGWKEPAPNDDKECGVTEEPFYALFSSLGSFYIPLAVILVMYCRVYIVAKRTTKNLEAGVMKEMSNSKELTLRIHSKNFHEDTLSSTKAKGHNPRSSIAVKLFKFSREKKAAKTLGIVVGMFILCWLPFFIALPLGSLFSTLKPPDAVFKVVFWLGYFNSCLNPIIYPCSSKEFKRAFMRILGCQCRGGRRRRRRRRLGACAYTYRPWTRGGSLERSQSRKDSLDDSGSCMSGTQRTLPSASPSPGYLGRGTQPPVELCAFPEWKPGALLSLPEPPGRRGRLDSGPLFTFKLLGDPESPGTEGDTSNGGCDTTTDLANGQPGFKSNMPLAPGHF
# T1 sequence (P23944 whole entry): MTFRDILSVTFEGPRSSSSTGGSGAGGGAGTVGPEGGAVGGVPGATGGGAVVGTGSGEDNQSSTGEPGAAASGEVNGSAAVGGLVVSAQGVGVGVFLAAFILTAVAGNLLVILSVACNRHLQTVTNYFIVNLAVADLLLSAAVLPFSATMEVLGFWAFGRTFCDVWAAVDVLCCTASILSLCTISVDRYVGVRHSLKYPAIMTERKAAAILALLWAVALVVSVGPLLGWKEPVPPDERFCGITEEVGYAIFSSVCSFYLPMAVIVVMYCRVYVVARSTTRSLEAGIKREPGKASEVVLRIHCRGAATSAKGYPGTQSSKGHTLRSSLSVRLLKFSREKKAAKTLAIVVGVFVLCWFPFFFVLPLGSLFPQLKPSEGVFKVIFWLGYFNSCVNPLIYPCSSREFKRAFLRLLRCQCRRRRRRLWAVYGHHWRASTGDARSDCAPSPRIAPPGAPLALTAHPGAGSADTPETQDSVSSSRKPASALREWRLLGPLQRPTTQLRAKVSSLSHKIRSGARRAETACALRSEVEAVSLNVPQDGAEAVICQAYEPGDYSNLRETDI
# T1 sequence (P43140 whole entry): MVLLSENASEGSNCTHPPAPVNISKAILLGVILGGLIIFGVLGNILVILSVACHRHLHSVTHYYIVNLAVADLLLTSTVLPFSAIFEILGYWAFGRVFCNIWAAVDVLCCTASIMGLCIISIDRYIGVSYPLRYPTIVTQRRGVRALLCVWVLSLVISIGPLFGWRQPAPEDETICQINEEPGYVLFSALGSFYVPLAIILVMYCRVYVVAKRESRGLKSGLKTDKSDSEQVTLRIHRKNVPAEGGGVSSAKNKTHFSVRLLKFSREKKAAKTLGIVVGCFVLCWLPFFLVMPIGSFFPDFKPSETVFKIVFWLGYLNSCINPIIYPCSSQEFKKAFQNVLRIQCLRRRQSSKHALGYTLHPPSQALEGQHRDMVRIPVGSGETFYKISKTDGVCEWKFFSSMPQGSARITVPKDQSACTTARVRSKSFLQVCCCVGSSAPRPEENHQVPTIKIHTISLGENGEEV
# Rattus norvegicus [2] = experiment: Effect on heart rate in anesthetized Wistar rat assessed as Q-T intervals time at 1 mg/kg, iv after 5 mins by electrocardiography; format: functional
# Rattus norvegicus [3] = experiment: Hypotensive activity in normotensive Wistar rat assessed as decrease in systolic blood pressure at 0.125 mg/kg, iv up to 60 mins; format: functional, organism-based; set-up: dose 0.125 mg/kg; details: Artery
# Rattus norvegicus [4] = experiment: Effect on heart rate in anesthetized Wistar rat assessed as heart beats per min at 1 mg/kg, iv after 5 mins by electrocardiography; format: functional
# Rattus norvegicus [5] = experiment: Hypotensive activity in normotensive Wistar rat assessed as decrease in diastolic blood pressure at 0.25 to 1 mg/kg, iv up to 60 mins; format: functional, Artery; set-up: scale not given: the % may be the effect or the level left; details: dose mg/kg 0.25-1
# Rattus norvegicus [6] = experiment: Hypotensive activity in normotensive Wistar rat assessed as decrease in diastolic blood pressure at 0.125 mg/kg, iv up to 60 mins; format: functional, organism-based; set-up: dose 0.125 mg/kg; details: Artery
# Rattus norvegicus [7] = experiment: Effect on heart rate in anesthetized Wistar rat assessed as decrease in heart rate at 1 mg/kg, iv up to 15mins by electrocardiography; format: functional; set-up: scale not given: the % may be the effect or the level left
# Rattus norvegicus [8] = experiment: Hypotensive activity in normotensive Wistar rat assessed as decrease in systolic blood pressure at 0.25 to 1 mg/kg, iv up to 60 mins; format: functional; set-up: scale not given: the % may be the effect or the level left; details: dose mg/kg 0.25-1
# Oryctolagus cuniculus [9] = species on record: Oryctolagus cuniculus; experiment: (§1) Spasmolytic activity in rabbit ileum assessed as decrease in amplitude of contraction at 10 uM measured for 5 mins; format: functional
# Rattus norvegicus [10] = experiment: Hypotensive activity in normotensive Wistar rat assessed as decrease in diastolic blood pressure at 0.0625 mg/kg, iv up to 60 mins; format: functional, organism-based; set-up: dose 0.0625 mg/kg; details: Artery
# Rattus norvegicus [11] = experiment: Hypotensive activity in normotensive Wistar rat assessed as decrease in systolic blood pressure at 0.0625 mg/kg, iv up to 60 mins; format: functional, organism-based; set-up: dose 0.0625 mg/kg; details: Artery
# Rattus norvegicus [12] = experiment: Hypotensive activity in normotensive Wistar rat assessed as decrease in systolic blood pressure at 0.125 to 1 mg/kg, iv up to 60 mins; format: functional, organism-based; details: Artery
# Rattus norvegicus [13] = experiment: Hypotensive activity in normotensive Wistar rat assessed as decrease in diastolic blood pressure at 1 to 5 mg/kg, iv up to 60 mins; format: functional, organism-based; details: Artery
# Oryctolagus cuniculus [14] = species on record: Oryctolagus cuniculus; experiment: (§2) Spasmolytic activity in rabbit ileum assessed as decrease in amplitude of contraction at 100 uM measured for 5 mins; format: functional
# Rattus norvegicus [15] = experiment: Hypotensive activity in normotensive Wistar rat assessed as decrease in diastolic blood pressure at 0.125 mg/kg, iv up to 10 mins; format: functional, organism-based; set-up: dose 0.125 mg/kg; details: Artery
# Rattus norvegicus [16] = experiment: Hypotensive activity in normotensive Wistar rat assessed as decrease in systolic blood pressure at 0.125 mg/kg, iv up to 30 mins; format: functional, organism-based; set-up: dose 0.125 mg/kg; details: Artery
# [17] = as §1; format: functional, Oryctolagus cuniculus; set-up: scale not given: the % may be the effect or the level left
# [18] = as §2; format: functional, Oryctolagus cuniculus; set-up: scale not given: the % may be the effect or the level left
# Rattus norvegicus [19] = experiment: Hypotensive activity in normotensive Wistar rat assessed as decrease in systolic blood pressure at 0.0312 mg/kg, iv up to 60 mins; format: functional, organism-based; set-up: dose 0.0312 mg/kg; details: Artery
# Rattus norvegicus [20] = experiment: Hypotensive activity in normotensive Wistar rat assessed as decrease in diastolic blood pressure at 0.0312 mg/kg, iv up to 60 mins; format: functional, organism-based; set-up: dose 0.0312 mg/kg; details: Artery
SMILES,Ki [1] [nM],Activity (Rattus norvegicus [2]) [ms],Activity (Rattus norvegicus [3]),Activity (Rattus norvegicus [4]) [bpm],Activity (Rattus norvegicus [5]) [%],Activity (Rattus norvegicus [6]),Activity (Rattus norvegicus [7]) [%],Activity (Rattus norvegicus [8]) [%],Activity (Oryctolagus cuniculus [9]),Activity (Rattus norvegicus [10]),Activity (Rattus norvegicus [11]),Activity (Rattus norvegicus [12]),Activity (Rattus norvegicus [13]),Activity (Oryctolagus cuniculus [14]),Activity (Rattus norvegicus [15]),Activity (Rattus norvegicus [16]),Activity [17] [%],Activity [18] [%],Activity (Rattus norvegicus [19]),Activity (Rattus norvegicus [20])
COc1ccccc1OCCNC[C@@H](O)COc1ccc(OC)c2[nH]ccc12,60.9,88,inactive,259,13,inactive,10,12,,,,,,,,,,,,
COc1ccccc1OCCNC[C@@H](O)COc1c(OC)ccc2[nH]ccc12,45.8,106,,403.2,,,,,Active,inactive,inactive,Active,Active,Active,,,,,,
COc1ccccc1OCCNCC(O)COc1c(OC)ccc2[nH]ccc12 (racemic),21.1,107.3,,372.9,8,,,7,inactive,,,Active,Active,Active,Active,Active,,,,
COc1ccccc1OCCNC[C@H](O)COc1ccc(OC)c2[nH]ccc12,168.8,94.8,inactive,292.3,13,inactive,10,12,,,,,,,,,10,10,,
COc1ccccc1OCCNCC(O)COc1ccc(OC)c2[nH]ccc12 (racemic),75.8,79.2,inactive,292.2,13,inactive,10,12,inactive,,,,,inactive,,,10,10,,
COc1ccccc1OCCNC[C@H](O)COc1c(OC)ccc2[nH]ccc12,11.3,111.3,,381,,,,,Active,,,Active,Active,Active,,,,,inactive,inactive
